From US7465814B2, “Sulfonate compound and fluorescent probe using the same” (priority 2003, dated 2008)
Read-outs that look alike come from different tables or passages of the source.

Legend:
[1] = Fluorescent response to XO-HPX system, 96-well microplate (Table 1); format: biochemical; conditions: relative fluorescence intensity, blank = 10, probe 21.3 μM, 10 minutes
Procedure: (§1) Moreover, in other conditions than those of the above-described tests, reactivity of all of the compounds 1a to 1d with H2O2, other various kinds of nucleophilic agents, reducing agents and the like also was tested, respectively. More specifically, fluorescent responses of 1a to 1d with respect to a XO-HPX system, a XO-HPX-SOD system, H2O2, ascorbic acid, 1,4-hydroquinone, propylamine, diethylamine, glucose, esterase, a cytochrome P450 reductase+NADPH system, and a diaphorase+NADH system were measured, respectively. Operational processes thereof will be described below. Firstly, 1a to 1d and the above-described reagents were dissolved in HEPES of 10 mM having a pH of 7.4 so as to prepare solutions, respectively. Next, a 96 wellmicroplate was provided, where any of the solutions of 1a to 1d (25 μM, 170 μL) was poured into each of the wells, and furthermore, 30 μL of a blank solution or 30 μL of the solution of the reagent to be reacted therewith was added thereto. Final concentrations of the solutions in the wells were adjusted so that concentrations of the solutions of 1a to 1d respectively could be 21.3 μM, that of XO could be 13.1 mU/mL, those of HPX, H2O2, ascorbic acid, 1,4-hydroquinone, propylamine, diethylamine, glucose, NADPH and NADH respectively could be 50 μM, that of cytochrome P450 reductase could be 68 mU/mL, that of diaphorase could be 65 mU/mL, and that of esterase could be 0.5 U/mL, respectively. Then, after they reacted in the wells at 37° C. for 10 minutes, fluorescent responses were measured respectively. Fluorescence intensity measurement was conducted by using an ETC-272 Peltier thermostatted single cell holder (trade name) manufactured by JASCO Corporation or a SpectraMax GeminiEM fluorescence plate reader (trade name) manufactured by Molecular Devices Corporation provided with a FP-750 spectrofluorometer (trade name) manufactured by JASCO Corporation, and by setting excitation wavelengths and emission wavelengths so that those of 1a, 1b and 1c respectively could be 485 nm and 515 nm, and those of 1d respectively could be 511 nm and 540 nm.

[2] = Fluorescent response to ascorbic acid (Table 1); format: biochemical; conditions: relative fluorescence intensity, blank = 10; probe 21.3 μM, ascorbic acid 50 μM, 37° C., 10 minutes
Procedure: as §1

[3] = Fluorescent response to glucose (Table 1); format: biochemical; conditions: relative fluorescence intensity, blank = 10; probe 21.3 μM, glucose 50 μM, 37° C., 10 minutes
Procedure: as §1

esterase = assay: Fluorescent response to esterase (Table 1); format: biochemical; conditions: relative fluorescence intensity, blank = 10; probe 21.3 μM, esterase 0.5 U/mL, 37° C., 10 minutes
Procedure: as §1

[4] = Tracking fluorescence with enzymatically produced superoxide (FIG. 1a-c); format: biochemical
Source text: (§2) This figure is a graph showing results that are obtained by tracking fluorescence by allowing the compound 1d to react with H2O2 or superoxide produced enzymatically, a horizontal axis thereof represents a reaction time (second), and a vertical axis thereof represents a fluorescence intensity (au). In the figure, (a) represents a result obtained by a reaction in the presence of HPX and XO, (b) represents a result obtained by a reaction in the presence of HPX, XO and SOD, (c) represents a result obtained by a reaction under an anaerobic condition in the presence of HPX, XO and SOD, and (d) represents a result obtained by a reaction with only H2O2. The test results shown in FIG. 1 will be described below in further detail.
More specifically, the enzyme reaction of the compound 1d (16 μM), xanthine oxidase (XO, 0.01 U/mL) and hypoxanthine (HPX, 40 μM) at 37° C. in a HEPES buffer solution (pH 7.4, 10 mM, 2.5 mL) was tracked at an excitation wavelength of 511 nm and an emission wavelength of 531 nm, then a fluorescent response caused by the formation of the compound 2d (above Scheme 4) was observed, and a progressive curve shown in FIG. 1(a) was obtained.
A specific description thereof will be provided below. NBT has a property of being reduced by superoxide O^2−•, and thus is used for a probe for spectrophotometric measurement and the like. However, NBT has a serious problem of being reduced not only by superoxide but also by reductase that exists in a biosystem.

[5] = Tracking fluorescence on reaction with H2O2 (FIG. 1d); format: biochemical; conditions: H2O2 40 μM only
Source text: as §2

Voltammetry measurement = format: physicochemical; conditions: CH3CN—H2O (3:1) containing Et4NClO4
neutrophils = conditions: for cell viability after the incubation with respect to before the incubation: 37° C., 120 minutes
Procedure: Moreover, a toxicity of the compound 1d with respect to the neutrophils was evaluated by estimating cell viability by a trypan blue dyeing method. More specifically, the neutrophils (1.0×10^5 cells) were incubated at 37° C. for 120 minutes in a glass test tube coated with human serum albumin, in the presence of both of the compound 1d (6.25 μM) and PMA (0.16 μM), in the presence of either of them, and in the absence of them, respectively. Then, cell viability after the incubation with respect to cell viability before the incubation was measured.

[6] = Reactivity with superoxide and glutathione (FIG. 4); format: biochemical; conditions: same conditions as 1-3 Superoxide-selectivity (2)
Procedure: as §1
The reactivity of each of the compounds 1d, 5a, 6a, 7 and 8a with respect to superoxide and glutathione (GSH) that is a kind of thiol was tested under the same conditions as those of [1-3. Superoxide-selectivity (2)] in Example 1. […] A vertical axis thereof denotes a fluorescence intensity, which is represented in % of control.

## O=C1OC2(c3ccccc31)c1cc(F)c(OS(=O)(=O)c3ccc([N+](=O)[O-])cc3[N+](=O)[O-])c(F)c1Oc1c2cc(F)c(OS(=O)(=O)c2ccc([N+](=O)[O-])cc2[N+](=O)[O-])c1F [Compound 1d]
[1]; XO 13.1 mU/mL, HPX 50 μM, HEPES pH 7.4, 37° C.
  fluorescent response, XO—HPX: 554
[1]; XO-HPX with SOD, 37° C.
  fluorescent response, XO—HPX—SOD: 60
[2]
  fluorescent response, ascorbic acid: 11
[3]
  fluorescent response, glucose: 10
esterase
  fluorescent response, esterase: 15
[4]; 1d 16 μM, XO 0.01 U/mL, HPX 40 μM, 37° C., HEPES pH 7.4, ex 511 nm, em 531 nm
  fluorescence response with HPX and XO, FIG. 1(a): increase a fluorescence response significantly in a short period of time
[4]; HPX, XO and SOD under the anaerobic condition
  production of 2d from 1d caused by XO reductant, FIG. 1(c): proceeded at a very low speed
[4]; as FIG. 1(a) plus SOD 40 U/mL
  fluorescence response with HPX, XO and SOD, FIG. 1(b): inhibited significantly
[5]
  increase of fluorescence intensity with H2O2, FIG. 1(d): small enough to be neglected
Voltammetry measurement
  cathode response: about −0.5 V vs SCE
neutrophils; in the presence of both 1d (6.25 μM) and PMA (0.16 μM)
  cell viability after the incubation with respect to before the incubation: 97%
neutrophils; incubation of 120 minutes
  toxicity with respect to the neutrophils: did not show any significant toxicity
neutrophils; substance only (1d 6.25 μM or PMA 0.16 μM), 1.0×10^5 neutrophils
  cell viability after the incubation with respect to before the incubation: 95%
[6]
  selectivity (specificity), superoxide versus glutathione, FIG. 4: excellent superoxide-selectivity
